Laboratory results reported in US12564600B2, “System for enhancing therapeutic compliance of the anti-cancer compound E7766” (Eisai R&D Management Co., Ltd., priority 2019, dated 2026).
In brackets after ≈: the same amount, converted by molar mass. Entries after “also recorded” stand apart in the source; their conditions may differ.

How the values were obtained:
Permeability (Papp) = format: in vitro ADME; settings: not told
OATP1B1/1B3 = experiment: Simcyp PBPK modeling of OATP1Bs-mediated drug-drug interaction; design: species or system human; settings: Simcyp input parameter
Procedure: PBPK modeling was conducted using the Simcyp™ in silico bottom-up PBPK modeling.
Simcyp™ software Version 17.0.0 was used. Simcyp™ parameters are shown below in Table 3.

[1] = Pharmacokinetics in wild-type mice with or without rifampin co-dose; format: in vivo, wild-type FVB male mice
Procedure: Age-matched Oatp1a/1b cluster-knockout, OATP1B1- or OATP1B3-knockin mice humanized on the Oatp1a/1b-knockout background, and wild-type FVB male mice were purchased from Taconic Biosciences (Hudson, N.Y., USA). Mice were between 8 and 10 weeks of age (22-34 g) at the time of study. Compound 1 was administered at a dose of 0.5 mg/kg coadministered with either vehicle or rifampin (30 mg/kg). Blood and liver samples were collected at 0.083, 0.25, 0.5, 1, 1.5, 3, 6 hours. Plasma was isolated from blood samples by centrifugation. All samples were stored at −80° C. until bioanalysis.
Compound 1 was dosed via intravenous administration to WT, humanized, and KO mice. Blood, urine, and feces were collected from the animals over 6 hours. Blood spots were collected and expelled FTA™ DMPK-B DBS Card (GE Healthcare, Life Sciences, Whatman™) within the appropriate sample circle. Pharmacokinetics of Compound 1 in WT animals was also assessed after co-administration with rifampin. Liver samples were also collected from WT animals and frozen until analysis. All samples were analyzed using LC-MS/MS and the pharmacokinetics parameters of Compound 1 were determined with Phoenix WinNonlin using non-compartmental analysis.
FIG. 2A through 2C show an in vivo PK profile and elimination of Compound 1 with and without a co-dose of the Oatp/OATP inhibitor Rifampin in different mouse models.

OATP1B1 = target: T1, OATP1B1 (Homo sapiens, UniProt Q9Y6L6); experiment: Uptake in HEK293 cells overexpressing OATP1B1; format: in vitro ADME
T1 construct: expressed in transfected cells; host or cells: HEK293-FT
T1 sequence (Q9Y6L6 1-691): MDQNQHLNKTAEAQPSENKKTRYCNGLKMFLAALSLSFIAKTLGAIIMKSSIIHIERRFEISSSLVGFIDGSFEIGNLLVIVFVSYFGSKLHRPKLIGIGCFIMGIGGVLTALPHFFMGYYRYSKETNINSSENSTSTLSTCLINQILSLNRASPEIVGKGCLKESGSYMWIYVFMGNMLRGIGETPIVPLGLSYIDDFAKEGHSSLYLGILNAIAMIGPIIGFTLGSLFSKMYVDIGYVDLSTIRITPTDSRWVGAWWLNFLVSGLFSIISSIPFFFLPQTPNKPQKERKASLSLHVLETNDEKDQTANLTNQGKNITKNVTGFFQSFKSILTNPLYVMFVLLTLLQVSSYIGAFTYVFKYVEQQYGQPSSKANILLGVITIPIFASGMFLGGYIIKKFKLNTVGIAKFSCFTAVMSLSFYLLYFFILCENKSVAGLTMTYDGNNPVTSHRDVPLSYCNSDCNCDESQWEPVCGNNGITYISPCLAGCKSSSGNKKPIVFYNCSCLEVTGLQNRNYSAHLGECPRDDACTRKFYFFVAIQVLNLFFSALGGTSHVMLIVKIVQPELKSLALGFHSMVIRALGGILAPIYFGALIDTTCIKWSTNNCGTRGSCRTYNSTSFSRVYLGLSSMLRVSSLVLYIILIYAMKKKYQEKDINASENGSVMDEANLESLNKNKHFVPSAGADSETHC
Procedure: TransportoCells™ (Corning, N.Y., USA) expressing OATP2B1, NTCP, and HEK293-FT cells stably transfected with the vector containing OATP1B1 cDNA or OATP1B3 cDNA or empty vector were grown in a Dulbecoo's modified Eagle's medium fortified with 10% fetal calf serum and 2 mmol/L sodium butyrate (for NTCP only) in a humidified incubator at 37° C. and 5% CO2. Cells were harvested at 90% confluence and then seeded in poly-D-lysine-coated 24-well 24 h prior to transporter assay. Cells were washed twice and pre-incubated with 200 μL of pre-warmed Krebs-Henseleit buffer. After pre-incubation, cells were incubated with 3 or 10 μmol L-1 of Compound 1 in presence or absence of 100 μmol L-1 of inhibitors (Rifamycin SV for OATP2B1, Troglitazone for NTCP, Rifamycin for OATP1B1 and OATP1B3). The transport reaction was terminated by aspirating the buffer from the wells at designated time. After washing three times with 200 μL of ice-cold Krebs-Henseleit buffer, the cells were lysed and the resulting cellular lysates were analyzed by LC-MS/MS.
Concentration-dependent uptake of Compound 1 via OATP1B1 and OATP1B3 were conducted with a concentration range of 0.25-100 μmol L-1 under linear uptake. All experiments were run in triplicates.

MRP2 = target: T2, MRP2 (Homo sapiens, UniProt Q92887); experiment: Transport in MRP2 expressing membrane vesicles; format: in vitro ADME
T2 construct: purchased Corning
T2 sequence (Q92887 whole entry): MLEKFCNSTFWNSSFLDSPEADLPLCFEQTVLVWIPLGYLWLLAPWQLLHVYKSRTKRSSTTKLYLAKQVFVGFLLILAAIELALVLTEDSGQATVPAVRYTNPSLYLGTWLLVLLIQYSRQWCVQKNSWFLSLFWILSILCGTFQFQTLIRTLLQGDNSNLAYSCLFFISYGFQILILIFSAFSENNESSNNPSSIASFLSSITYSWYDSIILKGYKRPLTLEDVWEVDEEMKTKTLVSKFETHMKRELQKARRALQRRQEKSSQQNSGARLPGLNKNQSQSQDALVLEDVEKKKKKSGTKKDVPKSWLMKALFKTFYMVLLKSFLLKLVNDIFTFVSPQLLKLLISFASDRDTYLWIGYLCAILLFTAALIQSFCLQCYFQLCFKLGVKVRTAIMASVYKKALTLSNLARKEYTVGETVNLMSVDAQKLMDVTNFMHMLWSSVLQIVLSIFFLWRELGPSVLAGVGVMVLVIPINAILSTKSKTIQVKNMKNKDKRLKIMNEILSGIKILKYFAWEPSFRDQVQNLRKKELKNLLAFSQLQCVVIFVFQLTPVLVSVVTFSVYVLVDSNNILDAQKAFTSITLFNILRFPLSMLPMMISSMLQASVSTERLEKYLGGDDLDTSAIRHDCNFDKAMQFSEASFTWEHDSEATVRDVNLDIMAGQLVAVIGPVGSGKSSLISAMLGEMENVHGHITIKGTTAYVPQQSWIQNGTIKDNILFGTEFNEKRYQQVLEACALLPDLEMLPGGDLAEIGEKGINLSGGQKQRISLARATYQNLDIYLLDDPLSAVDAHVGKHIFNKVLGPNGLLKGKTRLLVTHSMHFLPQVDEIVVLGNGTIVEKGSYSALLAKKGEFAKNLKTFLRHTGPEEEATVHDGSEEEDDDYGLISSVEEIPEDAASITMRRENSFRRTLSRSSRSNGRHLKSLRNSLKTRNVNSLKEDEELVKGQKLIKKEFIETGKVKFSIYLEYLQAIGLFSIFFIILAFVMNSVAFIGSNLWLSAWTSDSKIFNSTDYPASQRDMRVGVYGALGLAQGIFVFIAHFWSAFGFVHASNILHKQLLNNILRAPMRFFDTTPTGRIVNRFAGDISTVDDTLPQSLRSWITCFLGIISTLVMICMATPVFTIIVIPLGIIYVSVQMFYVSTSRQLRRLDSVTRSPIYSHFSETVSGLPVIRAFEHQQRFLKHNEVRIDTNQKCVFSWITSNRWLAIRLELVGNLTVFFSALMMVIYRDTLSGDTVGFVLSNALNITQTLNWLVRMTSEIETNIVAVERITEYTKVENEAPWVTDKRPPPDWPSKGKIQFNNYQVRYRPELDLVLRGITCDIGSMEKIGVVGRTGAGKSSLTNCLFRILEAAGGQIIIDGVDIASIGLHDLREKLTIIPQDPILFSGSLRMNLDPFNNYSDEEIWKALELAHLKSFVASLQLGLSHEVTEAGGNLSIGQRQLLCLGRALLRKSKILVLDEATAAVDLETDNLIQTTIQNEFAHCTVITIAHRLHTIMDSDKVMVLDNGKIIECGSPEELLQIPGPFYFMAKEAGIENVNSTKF
Procedure: To study the interaction of Compound 1 with hepatic efflux (ABC) transporters, TransportoCells™ membrane vesicles expressing BCRP, BSEP, MRP2, and control vector vesicles were pre-incubation with vesicle uptake buffer (47 mmol L-1 MOPs-Tris, 65 mmol L-1 KCl, 7 mmol L-1 MgCl2, pH 7.4 for BCRP; 47 mmol L-1 MOPs-Tris, 2.5 mmol L-1 GSH, 65 mmol L-1 KCl, 7 mmol L-1 MgCl2, pH 7.4 for MRP2; and 10 mmol L-1 HEPES-Tris, 100 mmol L-1 KNO3, 12.5 mmol L-1 Mg(NO3)2, and 50 mmol L-1 sucrose, pH 7.4 for BSEP) at 37° C. for 10 minutes. The transport was initiated by adding of pre-warmed 25 mmol/L MgATP, 3 μmol L-1 of Compound 1 in presence or absence of inhibitors (3 μmol L-1 of Novobioncin for BCRP, 100 μmol L-1 of MK-571 for MRP2, and 20 μmol L-1 of Ketoconazole for BSEP). The transport was terminated at designated time by adding 200 μL ice-cold vesicle uptake buffer. The complete content was then rapidly filtrated using multi-screen HTS vacuum manifold, followed by 5 washes and filtrations. The plate was allowed to dry completely and then placed onto a 96-well receiver plate. A 50 μL of elute solution (75% methanol containing the internal standard) was added into each assay well followed by centrifugation at 2000 rpm for 5 minutes. […] The yield samples from two centrifugation were combined and analyzed by LC-MS/MS. […]

[2] = Physicochemical properties and ECCS classification of Compound 1

- Papp (Permeability (Papp)): 0.36 ×10⁻⁶ cm/s
- CL R (OATP1B1/1B3): 2.000 L/h
- fold decrease of liver/plasma Kp with rifampin ([1]; male, FVB, mouse, liver and plasma, with rifampin 30 mg/kg co-dosed, wild type mice, IV, read-out: decrease of Kp (liver/plasma) in the presence of Rifampin): 5
- decrease of biliary excretion on co-dosing rifampin ([1]; mouse models of FIG. 2A-2C (wild type and OATP1Bs humanized), rifampin co-dose): 66-79%
- increase of Cmax in the presence of rifampin ([1]; wild type mice, IV): about 2 fold
- increase in plasma exposure in the presence of rifampin ([1]; wild-type mice, 0.5 mg/kg IV, rifampin 30 mg/kg): 5.4 fold
- Jmax (pmol/min/million cells), OATP1B1 (OATP1B1; Simcyp input parameter, Table 3): 8.34 pmol/min/million cells
- solubility [2]: 150 µM (≈ 112 µg/mL)
- logD ([2]; read-out: measured Log D): 1.31
- pKa ([2]; read-out: measured pKa): 3.41
Structure (SMILES): O=[P@]1(S)OC[C@H]2O[C@@H]3[C@H](F)[C@@H]2O[P@](=O)(S)OC[C@H]2O[C@H]([C@H](F)[C@@H]2O1)n1cnc2c(ncnc21)NC/C=C/CNc1ncnc2c1ncn23 [Compound 1]
- liver exposure (AUC) in the presence vs absence of rifampin ([1]; wild-type mice, IV, rifampin co-administered): did not change significantly; also recorded: comparable
- substrate of OATP1B1 (OATP1B1; HEK293 cells overexpressing human OATP1B1): responsible for hepatic uptake; also recorded: substrate
- substrate of biliary efflux transporter MRP2 (MRP2): sequential biliary efflux; also recorded: substrate
